Seven compounds from patent US20250230193A1, “CYCLIC COMPOUND HAVING SELECTIVE KRAS INHIBITORY EFFECT ON HRAS AND NRAS” (CHUGAI SEIYAKU KABUSHIKI KAISHA, priority 2022, published 2025) can be followed below.

The target in assay [1] is GDP-bound HRAS wild-type protein (Homo sapiens, UniProt P01112). The experiment in a line: Binding to HRAS by surface plasmon resonance (SPR), Single Cycle Kinetics. In general terms: SPR reads the build-up and loss of mass on a sensor chip optically.
The target of assay [2] is GDP-bound NRAS wild-type protein (Homo sapiens, UniProt P01111). Put plainly: Binding to NRAS by surface plasmon resonance (SPR), Single Cycle Kinetics.

*1 amine or outer side, *2 acyl side, *3 side chain or, on linkers, in order; H or OH if unused. Where a SMILES comes first, the peptide text is derived from it. Bridges are numbered along the chain shown (N, C = ends). [ ]: non-standard residue; d: D form. The star is where a group is joined. X21 = O=C([C@H](Cc1ccc(C(F)(F)F)cc1)N(CC1CCCC1)[*:1])[*:2]; hPhe(3-Cl-4-CF3) = N[C@@H](CCc1ccc(C(F)(F)F)c(Cl)c1)C(=O)O; NPrPhe(4-Me) = CCCN[C@@H](Cc1ccc(C)cc1)C(=O)O; NMeGly(cPent) = CN[C@H](C(=O)O)C1CCCC1; NMeD = CN[C@@H](CC(=O)O)C(=O)O; NMeL = CN[C@@H](CC(C)C)C(=O)O; Morpholide = C1CN(*)CCO1; Ac5c = NC1(C(=O)O)CCCC1; NEtG = CCNCC(=O)O; Sar = CNCC(=O)O

GDP-bound HRAS wild-type protein, sequence (P01112 whole entry): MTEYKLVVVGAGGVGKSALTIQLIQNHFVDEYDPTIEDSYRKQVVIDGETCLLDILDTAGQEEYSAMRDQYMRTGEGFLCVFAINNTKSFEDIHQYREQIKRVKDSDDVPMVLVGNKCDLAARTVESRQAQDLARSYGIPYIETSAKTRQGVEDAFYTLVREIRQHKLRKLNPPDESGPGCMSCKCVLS
GDP-bound NRAS wild-type protein, sequence (P01111 whole entry): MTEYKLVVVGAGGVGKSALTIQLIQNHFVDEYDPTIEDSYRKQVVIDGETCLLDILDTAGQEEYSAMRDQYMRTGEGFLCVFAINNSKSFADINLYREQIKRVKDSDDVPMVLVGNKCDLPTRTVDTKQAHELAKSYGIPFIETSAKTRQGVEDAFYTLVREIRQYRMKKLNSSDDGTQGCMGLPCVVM

For `CCCN1C(=O)[C@H](C2CCCC2)N(C)C(=O)C2(CCC2)NC(=O)[C@@H]2C[C@@H](OCC)CN2C(=O)[C@H](CCc2cc(F)c(C(F)(F)F)c(F)c2)NC(=O)CN(C)C(=O)[C@H](Cc2ccc(C(F)(F)F)cc2)N2CCCC[C@@H](C2=O)N(C)C(=O)CN(C)C(=O)[C@H]([C@@H](C)CC)NC(=O)[C@H](CC)N(C)C(=O)C[C@H]1C(=O)N(C)C` [PP0644], the “HRAS/KRAS (ratio of KD value with respect to GDP-bound HRAS wild-type protein to KD value with respect to KRAS)” value in assay [1] (SPR) is “B (a compound having 3 or more and less than 10 is denoted as B)”. The “NRAS/KRAS (ratio of KD value with respect to GDP-bound NRAS wild-type protein to KD value with respect to KRAS)” value in assay [2] (SPR) was “C (A compound having a KD ratio of 0.1 or more and less than 3 is denoted as C)”.
As for `CC[C@H](C)[C@@H]1NC(=O)[C@H](CC(C)C)N(C)C(=O)C[C@@H](C(=O)N2CCOCC2)N(C)C(=O)[C@H](C2CCCC2)N(C)C(=O)C2(CCCC2)NC(=O)[C@@H]2CCCN2C(=O)[C@H](CCc2ccc(C(F)(F)F)c(Cl)c2)NC(=O)CN(C)C(=O)[C@H](Cc2ccc(C(F)(F)F)cc2)N(CC2CCCC2)C(=O)CN(C)C(=O)CN(C)C1=O` [PP0124] ([NMeL]I[Sar][Sar][X21][Sar][hPhe(3-Cl-4-CF3)]P[Ac5c][NMeGly(cPent)][NMeD]-Morpholide; lactam N-11), the “HRAS/KRAS (ratio of KD for GDP-bound HRAS wild-type to KD for KRAS)” value in assay [1] (SPR) is “C (A compound having a KD ratio of 0.1 or more and less than 3 is denoted as C)”. The “NRAS/KRAS (ratio of KD for GDP-bound NRAS wild-type to KD for KRAS)” value in assay [2] (SPR) was “C (A compound having a KD ratio of 0.1 or more and less than 3 is denoted as C)”.
In the case of `CCO[C@@H]1C[C@H]2C(=O)NC3(CC(C)(C)C3)C(=O)N(C)[C@@H](C(CC)CC)C(=O)N(C)[C@H](C(=O)N(C)C)CC(=O)N(C)[C@@H](COC)C(=O)N[C@@H]([C@@H](C)CC)C(=O)N(C)CC(=O)N(C)[C@H]3C/C=C\CCN(C3=O)[C@@H](CC3CCCCC3)C(=O)N(C)CC(=O)N[C@@H](CCc3cc(F)c(C(F)(F)F)c(F)c3)C(=O)N2C1` [PP2456], the “HRAS/KRAS (ratio of KD value with respect to HRAS to KD value with respect to KRAS)” value in assay [1] (SPR, GDP-bound HRAS wild-type vs GDP-bound KRAS wild-type) is “A (a compound having 10 or more and less than 20 is denoted as A)”. The “NRAS/KRAS (ratio of KD value with respect to NRAS to KD value with respect to KRAS)” value in assay [2] (SPR, GDP-bound NRAS wild-type vs GDP-bound KRAS wild-type) was “A (a compound having 10 or more and less than 20 is denoted as A)”.
`CCO[C@@H]1C[C@H]2C(=O)NC3(CC(C)(C)C3)C(=O)N(C)[C@@H](C3CCCC3)C(=O)N(C)[C@H](C(=O)N(C)CC)CC(=O)N(C)[C@@H](C(C)C)C(=O)N[C@@H]([C@@H](C)CC)C(=O)N(C)CC(=O)N(C)[C@H]3C/C=C\CCN(C3=O)[C@@H](Cc3ccc(C(F)(F)F)cc3)C(=O)N(C)CC(=O)N[C@@H](CCc3ccc(C(F)(F)F)c(OC)c3)C(=O)N2C1` [PP1977]: in assay [1] (KD ratio, GDP-bound HRAS wild-type vs GDP-bound KRAS wild-type, SPR), the “HRAS/KRAS (ratio of KD value for HRAS to KD value for KRAS)” value was “A (a compound having 10 or more and less than 20 is denoted as A)”. In addition, the “NRAS/KRAS (ratio of KD value for NRAS to KD value for KRAS)” value in assay [2] (KD ratio, GDP-bound NRAS wild-type vs GDP-bound KRAS wild-type, SPR) is “AA (a compound having 20 or more is denoted as AA)”.
Turning to `CCO[C@@H]1C[C@H]2C(=O)NC3(CCC3)C(=O)N(C)[C@@H](C3CCCC3)C(=O)N(C)[C@H](C(=O)N(C)C)CC(=O)N(C)[C@@H](CC3CCCC3)C(=O)N[C@@H]([C@@H](C)CC)C(=O)N(C)CC(=O)N(C)[C@H]3C/C=C\CCN(C3=O)[C@@H](Cc3ccc(C)cc3)C(=O)N(C)CC(=O)N[C@@H](CCc3cc(C)c(C(F)F)c(F)c3)C(=O)N2C1` [PP2676], the “HRAS/KRAS (ratio of KD value with respect to GDP-bound HRAS wild-type protein to KD value with respect to KRAS)” value in assay [1] (class symbols) was “A (a compound having 10 or more and less than 20 is denoted as A)”. Moreover, the “NRAS/KRAS (ratio of KD value with respect to GDP-bound NRAS wild-type protein to KD value with respect to KRAS)” value in assay [2] (class symbols) was “A (a compound having 10 or more and less than 20 is denoted as A)”.
With `CCCN1C(=O)CN(C)C(=O)CN(C)C(=O)[C@H]([C@@H](C)CC)NC(=O)[C@H](CC(C)C)N(C)C(=O)C[C@@H](C(=O)N2CCOCC2)N(C)C(=O)[C@H](C2CCCC2)N(C)C(=O)C2(CCCC2)NC(=O)[C@@H]2CCCN2C(=O)[C@H](CCc2ccc(C(F)(F)F)c(Cl)c2)NC(=O)CN(CC)C(=O)[C@@H]1Cc1ccc(C)cc1` [PP0066] ([NMeL]I[Sar][Sar][NPrPhe(4-Me)][NEtG][hPhe(3-Cl-4-CF3)]P[Ac5c][NMeGly(cPent)][NMeD]-Morpholide; lactam N-11), the “HRAS/KRAS (ratio of KD for GDP-bound HRAS wild-type to KD for KRAS)” value in assay [1] (SPR) is “C (A compound having a KD ratio of 0.1 or more and less than 3 is denoted as C)”. In assay [2] (SPR), the “NRAS/KRAS (ratio of KD for GDP-bound NRAS wild-type to KD for KRAS)” value was “B (a compound having 3 or more and less than 10 is denoted as B)”.
For `CCC[C@H]1C(=O)N[C@@H](CC(C)C)C(=O)N(CC)CC(=O)N(C)[C@H]2C/C=C\CCN(C2=O)[C@@H](Cc2ccc(C)cc2)C(=O)N(C)CC(=O)N[C@@H](CCc2ccc(C(F)(F)F)c(Cl)c2)C(=O)N2C[C@H](OCC)C[C@H]2C(=O)NC2(CCC2)C(=O)N(C)[C@@H](C2CCCC2)C(=O)N(C)[C@H](C(=O)N(C)C)CC(=O)N1C` [PP2545], in assay [1] (class symbols), the “HRAS/KRAS (ratio of KD value with respect to GDP-bound HRAS wild-type protein to KD value with respect to KRAS)” value is “A (a compound having 10 or more and less than 20 is denoted as A)”. Further, the “NRAS/KRAS (ratio of KD value with respect to GDP-bound NRAS wild-type protein to KD value with respect to KRAS)” value in assay [2] (class symbols) was “A (a compound having 10 or more and less than 20 is denoted as A)”.
